One data set relates to HCT-8. In words: Cytotoxicity against human HCT8 cells after 72 hrs by MTT assay. It counts as functional, cell-based. Particulars: HCT-8, 72 h.
Another data set deals with A549. As to the kind of experiment: Cytotoxicity against human A549 cells after 72 hrs by MTT assay. It counts as functional, cell-based. Particulars: A549, 72 h. A general note: Formazan colour is commonly taken as a measure of viable cells.
Another data set relates to KB. As to the kind of experiment: Cytotoxicity against human KB cells after 72 hrs by MTT assay. It counts as functional, cell-based.
Data set [1] can be described thus: Cytotoxicity against human embryo lung fibroblast after 72 hrs by MTT assay. It counts as cell-based.
The subject of another data set is BGC-823. As to the kind of experiment: Cytotoxicity against human BGC823 cells after 72 hrs by MTT assay. It counts as functional, cell-based. The following applies: BGC-823, 72 h.
Data set [2] is described as follows: Selectivity ratio of IC50 for human embryo lung fibroblast to IC50 for human KB cells. It counts as ADME, cell-based. The following applies: human embryo lung fibroblasts and KB cells.

Converted amounts (≈) assume the structure as drawn.

As usually defined, the IC50 is the concentration that inhibits the measured activity by half. A high value points to a need for much substance.

`CCC(C)C(=O)O[C@H]1[C@H](OC(=O)/C=C(\C)CCC=C(C)C)C(C)(C)C[C@H]2C3=CC[C@@H]4[C@@]5(C)CC[C@H](O[C@@H]6O[C@H](C(=O)OC)[C@@H](O[C@@H]7O[C@@H](CO)[C@H](O)[C@H]7O)[C@H](O)[C@H]6O[C@@H]6O[C@H](CO)[C@@H](O)[C@H](O)[C@H]6O)C(C)(C)C5CC[C@@]4(C)[C@]3(C)[C@@H](O)[C@@H](O)[C@]21CO` (some centres not stated) [SYMPLOCOSOSIDE A]: the IC50 was 4.31 µg/mL (≈ 3.52 µM) in the data set with HCT-8, 0.67 µg/mL (≈ 0.547 µM) in the data set with A549, 1.72 µg/mL (≈ 1.4 µM) in the data set with KB and 4.62 µg/mL (≈ 3.77 µM) in data set [1].
The compound `CCCCOC(=O)[C@H]1O[C@@H](O[C@H]2CC[C@@]3(C)C(CC[C@]4(C)[C@@H]3CC=C3[C@@H]5CC(C)(C)C[C@H](OC(=O)/C=C(\C)CCC=C(C)C)[C@]5(CO)[C@H](O)[C@H](O)[C@]34C)C2(C)C)[C@H](O[C@@H]2O[C@H](CO)[C@@H](O)[C@H](O)[C@H]2O)[C@@H](O)[C@@H]1O[C@@H]1O[C@@H](CO)[C@H](O)[C@H]1O` (some centres not stated) registered an IC50 with HCT-8 of 4.04 µg/mL (≈ 3.46 µM).
Regarding `CCCCOC(=O)[C@H]1O[C@@H](O[C@H]2CC[C@@]3(C)C(CC[C@]4(C)[C@@H]3CC=C3[C@@H]5CC(C)(C)[C@@H](OC(=O)/C=C(\C)CCC=C(C)C)[C@H](OC(=O)C(C)CC)[C@]5(CO)[C@H](O)[C@H](O)[C@]34C)C2(C)C)[C@H](O[C@@H]2O[C@H](CO)[C@@H](O)[C@H](O)[C@H]2O)[C@@H](O)[C@@H]1O[C@@H]1O[C@@H](CO)[C@H](O)[C@H]1O` (some centres not stated), the half-maximal inhibitory concentration (IC50) in the data set with HCT-8 amounted to 2.86 µg/mL (≈ 2.26 µM); in the data set on BGC-823, 7.29 µg/mL (≈ 5.75 µM).
`COC(=O)[C@H]1O[C@@H](O[C@H]2CC[C@@]3(C)C(CC[C@]4(C)[C@@H]3CC=C3[C@@H]5CC(C)(C)[C@@H](O)[C@H](O)[C@]5(CO)[C@H](O)[C@H](O)[C@]34C)C2(C)C)[C@H](O[C@@H]2O[C@H](CO)[C@@H](O)[C@H](O)[C@H]2O)[C@@H](O)[C@@H]1O[C@@H]1O[C@@H](CO)[C@H](O)[C@H]1O` (some centres not stated): the selectivity ratio in data set [2] is > 33. Besides, the IC50 in the data set with HCT-8 was 6.8 µg/mL (≈ 6.86 µM); in the data set with A549 it was 0.66 µg/mL (≈ 0.666 µM); in the data set with KB, 0.3 µg/mL (≈ 0.303 µM); in data set [1] it was > 10 µg/mL.

These data come from ChEMBL document CHEMBL1148962, “Cytotoxic triterpenoid saponins from Symplocos chinensis” (J Nat Prod, 2004).
